Assay results from patent US7214771B2, “Nucleic acid and protein expression thereby and their involvement in stress” (University of Medicine & Dentistry of New Jersey, priority 1999, dated 2007).

Assays:
[1] = test system: human ovarian cancer cells; conditions: cited from earlier work
[2] = test system: RIAZ; assay: Localization of GFP/RIAZ in HTB-46 cells cotransfected with RIα (fluorescence microscopy); format: cell-based, human; conditions: HTB-46 cells cotransfected with RIα and GFP/RIAZ; cAMP for 8 hr
Procedure: FIG. 10 depicts the effect of RIα and cAMP on localization of RIAZ. GJP fusions at the N-terminus (GFP/RIAZ) and the C-terminus (RIAZ/GFP) were generated. […] Localization of GFP/RIAZ on co-transfection with RIα is redistributed to the nucleus on addition of cAMP(Panel D). In more detail, nuclear localization of RIAZ and regulation of its localization by RIα in the presence or absence of cAMP was performed as follows: (A,B) HTB-46 cells were plated the night before and then transfected with GFP/RIAZ the following day. Localization of RIAZ was visualized 24 hr after transfection using a fluorescence microscope. (C) HTB-46 cells were cotransfected with RIα and GFP/RIAZ in the absence of cAMP. (D) RIAZ distribution after addition of cAMP for 8 hr.
To further understand the mechanisms of interaction of RIα with RIAZ, we constructed a hybrid protein between RIAZ and the green fluorescence protein (GFP), with GFP fused to either the N-terminal (GFP/RIAZ) or the C-terminal (RIAZ/GFP) end of RIAZ. Distribution of RIAZ was visualized using a Zeiss Axioskop fluorescence microscope. […] Even though the nuclear localization of RIAZ was not affected by the position of GFP either at the amino or the carboxy terminal end of RIAZ, however, whether the transcriptional activity of RIAZ may be affected remains to be determined. […]

[3] = test system: human bladder cancer and human testicular embryonal germ cell carcinoma; conditions: simultaneous cisplatin and dipyridamole; high concentrations of dipyridamole; cited from earlier work
[4] = target: T1, RIα (Homo sapiens, UniProt P10644); assay: Binding of in vitro-translated RIAZ to immobilized GST-RIα (pull down); conditions: [35S]methionine labeled RIAZ; GST as control
T1 construct: made in house; host or cells: E. coli (GST-RIα); RIAZ made by in vitro translation
T1 sequence (P10644 whole entry): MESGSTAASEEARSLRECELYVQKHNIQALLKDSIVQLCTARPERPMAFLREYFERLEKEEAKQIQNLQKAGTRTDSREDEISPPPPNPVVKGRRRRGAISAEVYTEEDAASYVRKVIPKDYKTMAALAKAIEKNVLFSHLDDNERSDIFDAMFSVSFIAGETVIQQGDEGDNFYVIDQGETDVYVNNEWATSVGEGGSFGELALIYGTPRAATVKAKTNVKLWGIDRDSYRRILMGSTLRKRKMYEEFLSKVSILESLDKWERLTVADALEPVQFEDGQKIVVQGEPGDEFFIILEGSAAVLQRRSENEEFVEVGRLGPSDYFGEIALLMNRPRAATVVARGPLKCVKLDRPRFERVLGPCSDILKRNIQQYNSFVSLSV
Procedure: FIG. 8. Binding of in-vitro translated RIAZ protein to RIα. GST and GST-RIα proteins were immobilized on glutathione resins and then incubated with [^35S]methinine labeled RIAZ. The complexes were thoroughly washed and eluted in gel-loading buffer, separated by SDS-PAGE, and exposed to X-ray film.
Deletion of a cluster of ATG in the 5′ end of the RIAZ cDNA seemed to enhance translation from the putative ATG start codon of the open reading frame that encode the BTB-POZ domain zinc finger. […] In addition, based on the functions of other BTB-POZ zinc finger proteins in this family, which play various roles in apoptosis, transcription repression, and regulation of cell proliferation, we speculate that RIAZ may have a role in these important cellular functions. Since the emergence of drug resistance in cancer is also intimately influenced by apoptosis, alterations in cellular transcription programs and tumorigenesis, therefore, it is conceivable that RIα mediated drug resistance may be executed through the actions of RIAZ. Biochemical and molecular characterizations of the interaction of RIAZ with RI and its function and significance in drug resistance may yield insights into the mechanisms of this novel cAMP signaling pathway.

CC(C)Cn1c(=O)n(C)c(=O)c2[nH]cnc21 [3-isobutyl-1-methylxanthine]
effect on cisplatin sensitivity ([1]; treated ovarian carcinoma cells compared to untreated cells): increase in cisplatin sensitivity

Nc1ncnc2c1nc(Br)n2[C@@H]1O[C@@H]2COP(=O)(O)O[C@H]2[C@H]1O [8-Br-cAMP]
RIAZ subcellular distribution after treatment [2]: translocate to the nucleus

OCCN(CCO)c1nc(N2CCCCC2)c2nc(N(CCO)CCO)nc(N3CCCCC3)c2n1 [dipyridamole]
tumor response in combination with cisplatin [3]: complete tumor regression
effect on growth of cisplatin-resistant cells ([1]; dipyridamole treatment, cisplatin-resistant cells): did not affect the growth

B1: RIAZ: novel BTB-POZ domain zinc finger protein of 641 amino acids, SEQ ID NO: 17 (protein, listed as Homo sapiens)
chain: MERVNDASCGPSGCYTYQVSRHSTEMLHNLNQQRKNGGRFCDVLLRVGDESFPAHRAVLAACSEYFESVFSAQLGDGGAADGGPADVGGATAAPGGGAGGSRELEMHTISSKVFGDILDFAYTSRIVVRLESFPELMTAAKFLLMRSVIEICQEVIKQSNVQILVPPARADIMLFRPPGTSDLGFPLDMTNGAALAANSNGIAGSMQPEEEAARAAGAAIAGQASLPVLPGVDRLPMVAGPLSPQLLTSPFPSVASSAPPLTGKRGRGRPRKANLLDSMFGSPGGLREAGILPCGLCGKVFTDANRLRQHEAQHGVTSLQLGYIDLPPPRLGENGLPISEDPDGPRKRSRTRKQVACEICGKIFRDVYHLNRHKLSHSGEKPYSCPVCGLRFKRKDRMSYHVRSHDGSVGKPYICQSCGKGFSRPDHLNGHIKQVHTSERPHKCQTCNASFATRDRLRSHLACHEDKVPCQVCGKYLRAAYMADHLKKHSEGPSNFCSICNREGQKCSHQDPIESSDSYGDLSDASDLKTPEKQSANGSFSCDMAVPKNKMESDGEKKYPCPECGSFFRSKSYLNKHIQKVHVRALGGPLGDLGPALGSPFSPQQNMSLLESFGFQIVQSAFASSLVDPEVDQQPMGPEGK
binding to GST-RIα [4]: showed binding to GST-RIα but not to GST control
